From publication PMC12670408, “Backbone Alterations in Cyclic Peptides Influence Both Membrane Permeability and Biological Activity” (Journal of Medicinal Chemistry, 2025)
Like-named read-outs stand apart in the source and are kept apart here. Numbered stars: 1 amine (or outer) side, 2 acyl side, 3 side chain; on linkers, the order of the positions; unused ones are H or OH. Square brackets hold non-standard residues; d marks the D form. Peptide text beside a SMILES is read from it. Ile(ψThz) = CC[C@H](C)[C@H](N[*:1])c1nc(C(=O)[*:2])cs1

Experiments:
[1] = cited from earlier work
H-D exchange NMR = type: physicochemical; conditions: 20% D2O and 80% DMSO-d6
Excerpt: To further confirm the solvent accessibility of the amides we performed H-D exchange experiments using SA-A1, SA-B1, and SA-B3 by adding 20% D2O to samples dissolved in DMSO-d 6 (Table and Figures S10–S12). The rate of exchange of the amide proton for deuterium is an indicator of solvent accessibility. […] In line with their observations, the Ala-1 NH exchanges rather fast in SA-A1, which is in stark contrast to Ala-1 in SA-B1 and SA-B3 where it is fully stable. […] The Ile-4 amide is always strongly shielded which is in line with it being involved in a stable hydrogen bond with the Ala-1 carbonyl group as for SA-A1. […] Unfortunately, for SA-B3 this peak overlapped with aromatic peaks prohibiting quantification.
The samples were dissolved in DMSO-d 6 and 20% D2O was added. Immediately after ^1H NMR data was collected at 0, 10, 20, 30, and 240 min. The peak area was normalized to a peak of constant height.

[2] = CHI-IAM chromatography (immobilized artificial membrane); type: physicochemical; conditions: IAM.PC.DD2 column, ammonium acetate buffer pH 7.4
Excerpt: With all peptides in hand we first set out to estimate their passive membrane permeability using the immobilized artificial membrane (IAM) chromatography technique. , An IAM column is packed with a reverse phase like material modified with phospholipids to mimic a cellular membrane. After analysis of a compound its retention time is compared to a set of calibration compounds to yield a CHI-IAM value. A higher value indicates a stronger membrane interaction, which can be correlated to passive membrane permeability.
CHI-IAM chromatography was carried out on an Agilent 1200 Series LC (Agilent Technologies, USA) equipped with a 4.6 mm × 100 mm to 150 mm IAM.PC.DD2 column from Regis Technologies, Inc., eluting at 1.5 mL/min, eluting over a gradient of 0% – 85% MeCN with a 50 mM ammonium acetate buffer adjusted to pH 7.4 over 4.75 min.

U2OS cells = experiment: Cell painting assay (induction, cell count); type: cell-based
Description: Therefore, we subjected our set of compounds to the cell painting assay that is agnostic toward specific biological targets. In our cell-painting setup, the compounds were tested at different concentrations (10, 30, and 50 μM) in U2OS cells followed by treatment with dyes for mitochondria (Mito Tracker Deep Red), endoplasmic reticulum (concanavalin-Alexa488 conjugate), actin, (Phalloidin-Alexa594 conjugate), DNA (Hoechst 33342), nucleoli and cytoplasmic RNA (SYTO 14), and Golgi and plasma membranes (WGA-Alexa594 conjugate). Next, the cells were imaged in various channels at 9 sites per well and a total of 579 morphological parameters were extracted. An induction score was calculated from this analysis, which represents the number of parameters for which the change was significant in comparison to the DMSO control.
The described assay follows closely the method described by Bray et al.
Initially, 5 μL U2OS medium were added to each well of a 384-well plate (Revvity PhenoPlate 384). Subsequently, U2OS cell were seeded with a density of 1600 cells per well in 20 μL medium. The plate was incubated for 10 min at ambient temperature, followed by an additional 4 h incubation (37 °C, 5% CO2). […] Incubation with compound was performed for 20 h (37 °C, 5% CO2). Subsequently, mitochondria were stained with Mito Tracker Deep Red (Thermo Fisher Scientific, Cat. No. M22426). The Mito Tracker Deep Red stock solution (1 mM) was diluted to a final concentration of 100 nM in prewarmed medium. The medium was removed from the plate leaving 10 μL residual volume and 25 μL of the Mito Tracker solution were added to each well. The plate was incubated for 30 min in darkness (37 °C, 5% CO2). To fix the cells 7 μL of 18.5% formaldehyde in PBS were added, resulting in a final formaldehyde concentration of […]. Subsequently, the plate was incubated for another 20 min in darkness (RT) and washed three times with 70 μL of PBS. (Agilent Washer Elx405). Cells were permeabilized by addition of 25 μL 0.1% Triton X-100 to each well, followed by 15 min incubation (RT) in darkness. The cells were washed three times with PBS leaving a final volume of 10 μL. To each well 25 μL of a staining solution were added, which contains 1% BSA, 5 μL/ml Phalloidin (Alexa594 conjugate, Thermo Fisher Scientific, A12381), 25 μg/mL Concanavalin A (Alexa488 conjugate, Thermo Fisher Scientific, Cat. No. C11252), 5 μg/mL Hoechst 33342 (Sigma, Cat. No. B2261–25 mg), 1.5 μg/mL WGA-Alexa594 conjugate (Thermo Fisher Scientific, Cat. No. W11262) and 1.5 μM SYTO 14 solution (Thermo Fisher Scientific, Cat. No. S7576). The plate is incubated for 30 min (RT) in darkness and washed three times with 70 μL PBS. After the final washing step, the PBS was not aspirated. The plates were sealed and centrifuged for 1 min at 50g.
The generated images were processed with the CellProfiler package (https://cellprofiler.org/, version 3.0.0) on a computing cluster of the Max Planck Society to extract 1716 cell features per microscope site. The data was then further aggregated as medians per well (9 sites → 1 well), then over the three replicates.
From the total set of 1716 features, a subset of highly reproducible and robust features was determined using the procedure described by Woehrmann et al. in the following way: Two biological repeats of one plate containing reference compounds were analyzed. For every feature, its full profile over each whole plate was calculated.
The phenotypic profiles were compiled from the Z-scores of all individual cellular features, where the Z-score is a measure of how far away a data point is from a median value.

[3] = Variable-temperature 1H-NMR of amide protons; type: physicochemical
Description: The solvent exposure of peptide backbone NH groups can be studied using variable temperature ^1H-NMR experiments, where the change in chemical shift of the amide protons is observed upon increasing temperature. […] These experiments were performed for compounds SA-A1, SA-B1, SA-B2, and SA-B3 in both DMSO-d6, as a mimic of a polar environment, and CDCl3, as a mimic of the hydrophobic membrane environment (Figures S2–S9, and Tables and ). […] For SA-B3 the Ile-6 amide was also more exposed to solvent, but the change in Phe-2 shift was much smaller.
Variable-temperature nuclear magnetic resonance (VT-NMR) measurements were conducted using a Bruker Avance Neo 600 (av600) spectrometer equipped with a CP2.1 TMO 600 S3 cryoprobe. The ^1H NMR data was collected over a temperature range from 293.15 to 323.15 K, with temperature increments of 5 °C.

[4] = set-up: method as in Fairlie group; conditions: ref Fairlie group; cited from earlier work
[5] = set-up: method as in Nielsen et al.; conditions: D2O (10%)/DMSO-d6 (90%), value in brackets, ref Nielsen et al.; cited from earlier work
[6] = CDCl3, value in brackets, ref Bockus et al.
[7] = DMSO-d6, value in brackets, ref Nielsen et al.

CC[C@H](C)[C@@H]1NC(=O)[C@@H]2CCCN2C(=O)[C@H](Cc2ccccc2)NC(=O)[C@H](C)NC(=O)c2csc(n2)[C@H]([C@@H](C)CC)NC(=O)[C@@H]2CCCN2C1=O [SA-A1, Sanguinamide A] (cyclo(AFPIP[Ile(ψThz)]))
ΔδNH/ΔT Ala-1 [1, 6]: 0.1 ppb/K
ΔδNH/ΔT Ile-4 [1, 6]: −3.1 ppb/K
ΔδNH/ΔT Ile-6 [1, 6]: −3.1 ppb/K
ΔδNH/ΔT Phe-2 [1, 6]: −9.1 ppb/K
ΔδNH/ΔT Ala-1 [1, 7]: 0.4 ppb/K
ΔδNH/ΔT Ile-4 [1, 7]: −1.5 ppb/K
ΔδNH/ΔT Ile-6 [1, 7]: −4.0 ppb/K
ΔδNH/ΔT Phe-2 [1, 7]: −4.2 ppb/K
H-D exchange rate Ala-1 (H-D exchange NMR): 57 min
H-D exchange rate Ile-4 (H-D exchange NMR): > 240 min
H-D exchange rate Ile-6 (H-D exchange NMR): 341 min
H-D exchange rate Phe-2 (H-D exchange NMR): 48 min
CHI-IAM [2]: 39.71 ± 0.16
Cell count at 10 μM (U2OS cells): 103%
Induction at 10 μM (U2OS cells): 1.4%
Cell count at 30 μM (U2OS cells): 97%
Induction at 30 μM (U2OS cells): 32.6%
Cell count at 50 μM (U2OS cells): 88%
Induction at 50 μM (U2OS cells): 29.7%
ΔδNH/ΔT Ala-1 ([3]; CDCl3): –0.1 ppb/K
ΔδNH/ΔT Ile-4 ([3]; CDCl3): –3.5 ppb/K
ΔδNH/ΔT Ile-6 ([3]; CDCl3): –3.6 ppb/K
ΔδNH/ΔT Phe-2 ([3]; CDCl3): –10.2 ppb/K
ΔδNH/ΔT Ala-1 ([3]; DMSO-d6): –0.4 ppb/K
ΔδNH/ΔT Ile-4 ([3]; DMSO-d6): –1.7 ppb/K
ΔδNH/ΔT Ile-6 ([3]; DMSO-d6): –3.8 ppb/K
ΔδNH/ΔT Phe-2 ([3]; DMSO-d6): –4.2 ppb/K
bioavailability (F) [4]: 7%
H-D exchange rate Ala-1 [5]: 188 min
H-D exchange rate Ile-4 [5]: 6000 min
H-D exchange rate Ile-6 [5]: 1500 min
H-D exchange rate Phe-2 [5]: 380 min

CC[C@H](C)[C@@H]1NC(=O)[C@@H]2CCCN2C(=O)[C@H]([C@@H](C)CC)NC(=O)[C@@H]2CCCN2C(=O)[C@H](Cc2ccccc2)NC(=O)[C@H](C)NC(=O)[C@H](CS)NC1=O [SA-A3] (cyclo(AFPIPIC))
CHI-IAM [2]: 33.97 ± 0.13
Cell count at 10 μM (U2OS cells): 102%
Induction at 10 μM (U2OS cells): 0.7%
Cell count at 30 μM (U2OS cells): 102%
Induction at 30 μM (U2OS cells): 1%
Cell count at 50 μM (U2OS cells): 98%
Induction at 50 μM (U2OS cells): 1%
